Test results taken from patent US20100069364A1, “SUBSTITUTED PYRAZOLINE COMPOUNDS WITH ACAT INHIBITION ACTIVITY, THEIR PREPARATION AND USE AS MEDICAMENTS” (LABORATORIOS DEL DR. ESTEVE, S.A., priority 2007, published 2010).
Like-named read-outs stand apart in the source and are kept apart here.

How the values were obtained:
[1] = test system: T1, ACAT (Acyl CoA-Cholesterol Acyltransferase); assay: In-vitro determination of inhibition of ACAT in hepatic microsomes, [14C]-Palmitoyl CoA substrate; type: biochemical, Wistar rats; settings: rat hepatic microsomes
T1 construct: other: 10^−4 M; rat hepatic microsomes; other: 3 × 10^−5 M; other: 10^−5 M; ot
Description: I. In-Vitro Determination of Inhibition of ACAT (Acyl CoA-Cholesterol Acyltransferase)
The in-vitro determination of the inhibition of the enzyme ACAT by the compounds of the invention is carried out in principle as described in the publication of Largis EE, Wang CH, DeVries VG and Schaffer SA (1989), “A Novel inhibitor of ACAT-catalyzed cholesterol esterification and cholesterol absorption”, J. Lipid Res. 30, 681-689, (1989), whereby hepatic microsomes are used. The radio-substrate used is [^14C]-Palmitoyl CoA. The respective parts of the description are hereby incorporated by reference and forms part of the present disclosure.
Briefly hepatic microsomes were prepared from the Wistar rats. Enzyme inhibition experiments were performed in presence of 18 μM [^14C]-Palmitoyl CoA as substrate. The vehicle used was 1% DMSO. Compounds to be tested were present at various concentrations and the incubation buffer used was 0.2 M Phosphate buffer, pH 7.4 at 25° C. After a 15 minutes preincubation period at 37° C. an incubation period of 10 minutes at 37° C. followed. Quantification of [^14C]Cholesterol ester was done by column chromatography.
The inhibition of the enzyme ACAT by the inventive substituted pyrazoline compounds was determined as described above.

[2] = target: ACAT (Acyl CoA-Cholesterol Acyltransferase); settings: reported value for the reference compound; cited from earlier work
[3] = 3 × 10^−5 M, second table (other experiment)
[4] = 3 × 10^−6 M, second table (other experiment)
[5] = 10^−4 M, second table (other experiment)
[6] = 10^−5 M, second table (other experiment)
[7] = second table (other experiment)

ACAT Inhibition (%) at various concentration of example ([1]; 3 × 10^−5 M, first table)	ACAT Inhibition (%) at various concentration of example [1, 3]	ACAT Inhibition (%) at various concentration of example ([1]; 3 × 10^−6 M, first table)	ACAT Inhibition (%) at various concentration of example [1, 4]	ACAT Inhibition (%) at various concentration of example ([1]; 3 × 10^−7 M, first table)	ACAT Inhibition (%) at various concentration of example [1, 5]	ACAT Inhibition (%) at various concentration of example ([1]; 10^−5 M, first table)	ACAT Inhibition (%) at various concentration of example [1, 6]	ACAT Inhibition (%) at various concentration of example ([1]; 10^−6 M, first table)	IC50 ([1]; first table)	IC50 [1, 7]	SMILES	ACAT Inhibition (%) at various concentration of example ([1]; 10^−4 M, first table)	IC50 [2]
91%	94%	32%	37%	10%	98%	68%	75%	20%	4.93 µM	4.39 µM	CC1(c2ccc(Cl)cc2)CC(C(=O)NN2CCCCCC2)=NN1c1ccc(Cl)cc1Cl.Cl (stereo not shown) [Example 2, 5-(4-Chloro-phenyl)-1-(2,4-dichloro-phenyl)-5-methyl-4,5-dihydro-1H-pyrazole-3-carboxylic acid azepan-1-ylamide; hydrochloride]		
79%	85%	30%	34%		98%	56%	62%	10%	7.63 µM	5.96 µM	CC1(c2ccc(Cl)cc2)CC(C(=O)NN2CCCCC2)=NN1c1ccc(Cl)cc1Cl.Cl (stereo not shown) [Example 3, 5-(4-Chloro-phenyl)-1-(2,4-dichloro-phenyl)-5-methyl-4,5-dihydro-1H-pyrazole-3-carboxylic acid piperidin-1-ylamide; hydrochloride]	92%	
									22.7 µM	12.5 µM	CC[C@H](C)C(=O)O[C@H]1C[C@@H](C)C=C2C=C[C@H](C)[C@H](CC[C@@H]3C[C@@H](O)CC(=O)O3)[C@H]21 [Lovastatin, reference compound]		29 µM

SMILES	ACAT Inhibition (%) at various concentration of example ([1]; 3 × 10^−5 M, first table)	ACAT Inhibition (%) at various concentration of example [1, 3]	ACAT Inhibition (%) at various concentration of example ([1]; 3 × 10^−6 M, first table)	ACAT Inhibition (%) at various concentration of example [1, 4]	ACAT Inhibition (%) at various concentration of example ([1]; 3 × 10^−7 M, first table)	ACAT Inhibition (%) at various concentration of example [1, 5]	ACAT Inhibition (%) at various concentration of example ([1]; 10^−5 M, first table)	ACAT Inhibition (%) at various concentration of example [1, 6]	ACAT Inhibition (%) at various concentration of example ([1]; 10^−6 M, first table)	IC50 ([1]; first table)	IC50 [1, 7]	ACAT Inhibition (%) at various concentration of example ([1]; 10^−4 M, first table)	IC50 [2]
CC1(c2ccc(Cl)cc2)CC(C(=O)NC2CCCCCC2)=NN1c1ccc(Cl)cc1Cl (stereo not shown) [Example 1, 5-(4-Chloro-phenyl)-1-(2,4-dichloro-phenyl)-5-methyl-4,5-dihydro-1H-pyrazole-3-carboxylic acid cycloheptylamide]	54%		14%				46%		−1%	27.5 µM		62%	
